Legend:
Format in all cases: cell-based
[1] = test system: THP-1 NSC-370284-resistant clones; assay: Viability of THP-1 NSC-370284-resistant clones with chemotherapy drugs; conditions: 3 resistant clones; 48 hours
Procedure: FIG. 6. […] (a) NSC-370284-resistant AML cells are sensitive to DNR. Three of the THP-1 NSC-370284-resistant clones (DRC-1-3) and the parental control were treated with DNR at indicated doses. Cell viability was tested 48 hours after the treatments. […] Relative cell viability at 48 hours post drug treatment is shown. Error bar indicates SD of triplicate experiments. (d) Synergistic therapy of NSC-370284 or UC-514321 in combination with standard chemotherapy. Secondary BMT recipient mice were transplanted with primary MLL-AF9 leukemic BM cells. […] 5-9 mice were included in each group. Kaplan-Meier curves are shown. The P values were determined by log-rank test. (e) Wright-Giemsa staining of mouse PB and BM, or H&E staining of mouse spleen and liver of MLL-AF9 secondary BMT recipients treated with “5+3” alone, or combinational therapy.
Long-term treatment with a drug may cause drug resistance in patients, and thus combinatory therapy is often required. To treat AML cells that have gained resistance to inhibitors, the effects of a set of first-line AML chemotherapy drugs including daunorubicin (DNR), cytarabine (AraC), all-trans retinoic acid (ATRA), azacytidine (AZA), and decitabine (DAC) on the viability of parental THP-1 cells and three NSC-370284-resistant clones were investigated (FIG. 6a and FIG. 18a-d).

[2] = test system: Tet1 deficient mouse BM progenitor cells transduced with MLL-AF9; assay: Viability of MLL-AF9-transduced Tet1 deficient BM progenitor cells; conditions: 48 hrs; 200 nM (FIG. 13)
Procedure: FIG. 5. […] Gene expression levels are shown. […] ChIP-qPCR assay was carried out 48 hrs after drug treatment. Enrichment of STAT3, STAT5, or IgG at the TET1 promoter region and other regions are shown. […] BM progenitor cells of wild-type or Tet1^−/− mice were retrovirally transduced with MLL-AF9. […] Relative cell viabilities are shown. (m) Cre-Tet1f mouse BM progenitor cells were retrovirally transduced with MLL-AF9. […] Relative cell viability is shown. (n-o) THP-1 (n) and MONOMAC-6 (o) cells were infected with lentivirus of pLenti-puro vector-based Tet1 construct. […] Relative cell viability is shown. *, P<0.05; **, P<0.01, two-tailed t-test. Error bar indicates SD of triplicate experiments.
FIG. 13. […] (a-d) BM progenitor cells of wild-type or Tet1^−/− mice were retrovirally transduced with MLL-AF9. Infected cells were treated with 200 nM JAK/STAT inhibitors individually, including Pacritinib (a), KW-2449 (b), Stattic (c) or sc-355979 (d), for 48 hrs. Relative cell viabilities are shown. (e) Cre-Tet1^fl/fl mouse BM progenitor cells were retrovirally transduced with MLL-AF9. […] Cell viabilities (normalized to non-induced Cre-Tet1^fl/fl treated with DMSO control) are shown. ‘K, P<0.05; ‘K‘K, P<0.01, two-tailed t-test
siRNAs were transfected into MONOMAC-6 cells with Cell Line Nucleofector Kit V following program T-037, using the Amaxa Nucleofector Technology (Amaxa Biosystems, Berlin, Germany). Experiments were performed 48 h after transfection. Retrovirus infection of mouse BM progenitor cells were conducted as described previously with some modifications. Briefly, retrovirus vectors were co-transfected with pCL-Eco packaging vector (IMGENEX, San Diego, Calif.) into HEK293T cells using Effectene Transfection Reagent (Qiagen, Valencia, Calif.) to produce retrovirus. BM cells were harvested from a cohort of 4- to 6-week-old C57BL/6, Tet1^−/−, or Cre-Tet1^fl/fl donor mice after five days of 5-fluorouracil (5-FU) treatment, and primitive hematopoietic progenitor cells were enriched with Mouse Lineage Cell Depletion Kit (Miltenyi Biotec Inc., Auburn, Calif.). An aliquot of enriched hematopoietic progenitor cells was added to retroviral supernatant together with polybrene in cell culture plates, which were centrifuged at 2,000 g for 2 hours at 32° C. (i.e., spinoculation) and then the medium was replaced with fresh media and incubated for 20 hours at 37° C. Next day, the same procedure was repeated once. Infected cells were grown in RPMI 1640 medium containing 10 ng/mL murine recombinant IL-3, 10 ng/mL IL-6, 100 ng/mL murine recombinant SCF (R&D Systems, Minneapolis, Minn.), along with 1.0 mg/ml of G418. Experiments were performed 7 days after infection.
(§1) These experiments were conducted as described previously (Jiang, X., et al., Blockade of miR-150 Maturation by MLL-Fusion/MYC/LIN-28 Is Required for MLL-Associated Leukemia, Cancer Cell 22:524-35 (2012); Li, Z., et al., miR-196b directly targets both HOXA9/MEIS1 oncogenes and FAS tumour suppressor in MLL-rearranged leukaemia, Nat Commun 2:688 (2012)) with ApoLive-Glo Multiplex Assay Kit, or CellTiter 96 AQueous Non-Radioactive Cell Proliferation Assay Kit (Promega, Madison, Wis.).

[3] = test system: TET1-high AML (including MONOMAC-6, THP-1, and KASUMI-1) cells; assay: MTS viability of AML cell lines versus JAK/STAT inhibitors; conditions: MTS 48 hrs; maximum concentration tested 500 nM
Procedure: FIG. 4. […] (a) Structures of NSC-370284 and UC-514321. […] Cells were treated with drugs at indicated doses. Cell viability was detected by MTS 48 hrs post-treatment. Error bar indicates SD of triplicate experiments. […] Secondary BMT recipient mice were transplanted with primary leukemic BM cells with MLL-AF9 (f) or AML-ETO9a (g). […] Kaplan-Meier curves are shown. The P values were determined by log-rank test. […] Secondary BMT recipient mice were transplanted with primary leukemic BM cells with MLL-AF10 or FLT3-ITD/NPM1^mut. […] Kaplan-Meier curves are shown. The P values were determined by log-rank test. (j) Wright-Giemsa staining of mouse PB and BM, or H&E staining of mouse spleen and liver of MLL-AF9 AML secondary BMT recipients with or without drug treatment.
as §1

SMILES | sensitivity of drug-resistant clones relative to parental THP-1 control [1] | difference in cell viability between wild-type and Tet1 deficient cells [2] | inhibitory effects on the viability of these AML cells [3]
COc1cccc2c1C(=O)c1c(O)c3c(c(O)c1C2=O)C[C@@](O)(C(C)=O)C[C@@H]3O[C@H]1C[C@H](N)[C@H](O)[C@H](C)O1 [DNR, daunorubicin] | much more sensitive | – | –
O=C(c1ccc(/C=C/c2n[nH]c3ccccc23)cc1)N1CCNCC1 [KW-2449, reference compound] | – | no significant differences | –
C1=C/COCc2cc(ccc2OCCN2CCCC2)Nc2nccc(n2)-c2cccc(c2)COC/1 [Pacritinib, reference compound] | – | no significant differences | –
O=[N+]([O-])c1ccc2c(c1)S(=O)(=O)C=C2 [Stattic, reference compound] | – | no significant differences | did not show significant inhibitory effects
O=C(NN=Cc1coc2ccccc2c1=O)c1cccnc1 [sc-355979, reference compound] | – | no significant differences | did not show significant inhibitory effects
